Measured values reported in patent publication US20120115947A1, “COMBINATION/ASSOCIATION OF ADAPALENE AND BENZOYL PEROXIDE FOR TREATING ACNE LESIONS” (Galderma Research & Development, priority 2006, published 2012).

What was measured:
TPA-induced ear edema = assay: Anti-inflammatory evaluation in TPA-induced ear edema model; assay type: in vivo, Balb/c mice; conditions: single topical application, T+6 hours
Procedure: Evaluation of the Anti-Inflammatory in Ear Edema Model on Balb/c Mice
The study was carried out with […] ([…]) female 9 weeks aged Balb/c ByJlc mice.
The Edema was induced by a single application of 20 μl of TPA dissolved in acetone at 0.01%.
The treatment was administrated by single topical application of tested compounds dissolved in TPA at 0.01% (groups 3, 4, 5, 6 and 7) and dissolved in TPA 0.01%+BPO (groups 8, 9 and 10).
The treatments activity was measured by inflammation evaluation with ear thickness at T+6 hours.

[1] = system: patients suffering from acne; assay: Multi-centre, randomized, double-blind clinical study of adapalene + BPO topical gel versus monads and vehicle; assay type: in vivo; conditions: adapalene 0.1%, BPO 2.5%; for Reduction in lesions (all lesions): 12 weeks, gels once a day, rounded values of the text; for Degree of success (percentage of patients clear or almost clear): week 12, ITT (LOCF), gels once a day for 12 weeks
Procedure: A clinical study for confirmation of efficacy was performed for a topical gel combining adapalene+benzoyl peroxide (BPO). This gel has the following formulation (expressed as % weight/total weight): [table] Protocol: The clinical study was a multi-centre, randomized, double-blind study in parallel groups, to evaluate the tolerance and the efficacy of the above formulation, in comparison with its own individual active substances placed at the same doses in gels of the same formula as that of the fixed combination (individual formulae referred to as “monads”) and in comparison with the gel vehicle (placebo formula): adapalene gel (0.1%), BPO gel (2.5%) and vehicle gel. All the treatments were applied once a day for 12 weeks, to 517 patients suffering from acne. The main efficacy criteria were: the degree of success, defined as the percentage of patients considered as being “clear”, i.e., the patient has no more acne lesions (neither comedones nor inflammatory lesions), reflecting an improvement in the patient's clinical condition, or “almost clear” on the evaluation scale; the reduction of the percentage of inflammatory and non-inflammatory lesions after 12 weeks of treatment.

| Compound | Anti-inflammatory effect on TPA-induced ear edema (in words) (TPA-induced ear edema) | Reduction in lesions (all lesions) [1] [%] | Degree of success (percentage of patients clear or almost clear) [1] [%] |
| --- | --- | --- | --- |
| COc1ccc(-c2ccc3cc(C(=O)O)ccc3c2)cc1C12CC3CC(CC(C3)C1)C2 [Adapalene, 6-[3-(1-Adamantyl)-4-methoxyphenyl]-2-naphthoic acid] | low anti-inflammatory effect | 35 | 16 |
| O=C(OOC(=O)c1ccccc1)c1ccccc1 [BPO, benzoyl peroxide] | slight anti-inflammatory effect | 36 | 15 |
